Where two headings read alike, the source gives them in different places.
Columns and labels:
Type in all cases: cell-based
RSV strain A2 = assay: microbe, parasite or virus in culture; details: Table 3, HEp-2 cells, RSV A2, 4 days, read-out: RSV HEp-2 EC50
Method in brief: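 Cytopathic-effect protection assay: HEp-2 cells (50,000/mL) infected with pre-titered RSV A2 onto 3-fold serial compound dilutions, incubated 4 days at 37° C. Cell viability read by CellTiter-Glo luminescence; percent inhibition derived against 0% and 100% virus-inhibition controls.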

RSV A2 = assay: RSV NHBE EC50 (RSV A2 antiviral assay in NHBE cells); details: Table 3, NHBE cells, RSV A2, 4 days, read-out: RSV NHBE EC50
Method in brief: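 Luminescent ATP-based viability was recorded in RSV A2-infected normal human bronchial epithelial cells exposed to serially diluted compound (3-fold steps, 0.05% DMSO). Infection used 1×10^4.5 TCID/mL, with a 4-day incubation at 37° C.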

HRV16 = HRV16 HeLa EC50 (cytopathic effect in H1-HeLa cells)
Method in brief: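 Read-out is luminescent cell viability (CellTiter-Glo) after 96 h of infection at 33 °C, scaled between uninfected and infected-untreated wells. Before infection with titrated virus, compounds went onto H1-HeLa cells as triplicate 3-fold dilution series.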

DENV2 replicon = assay: DENV-2 Huh-7 Rep EC50 (replicon luminescence); details: read-out: DENV-2 REP Huh7 EC50
Experimental: In 384 well plates (Greiner, Cat #781091), compounds were acoustically transferred at 200 nl per well in a 8 compound (4 replicates) or 40 compound dose response format (3 replicates). For all plates tested, Balapiravir, GS-5734 and NITD008 were included as positive inhibition controls alongside 0% inhibition, DMSO-only negative control wells. Following compound addition, Huh-7 cells containing the DENV2 replicon construct were harvested following standard cell culture procedures and were adjusted to a concentration of 1.25E5 cells/mL in cell culture media composed of cDMEM without genticin. 40 μL of the cell stock was then added to each well for a final cell density of 5,000 cells/well. Cell and compound mixtures were incubated at 37° C./5% CO2 for 48 hours. Prior to harvesting cells, EnduRen Live Cell Substrate (Promega, Cat #E6481) was prepared by suspending 3.4 mg into 100 uL of DMSO to generate a 60 mM stock solution. The stock solution was then diluted 1:200 in pre-warmed cDMEM and 10 uL of this diluted solution was added to each well of the 384 well plates. Plates were then centrifuged at 500 rpm briefly and were placed on a plate shaker for 2 min. Following mixing, plates were incubated at […] for 1.5 hours prior to measuring luminescence on an Envision luminometer.

[1] = human respiratory syncytial virus, HEp-2, 96 h
[2] = human respiratory syncytial virus, NHBE, 96 h
[3] = 96 h, Table 3; H1-HeLa cells, 96 h; read-out: HRV16 HeLa EC50
[4] = Dengue virus, DENV2, Huh-7, 48 h
[5] = Table 3; H1-HeLa cells, 96 h; read-out: HRV16 HeLa EC50
[6] = Table 3, Huh-7 DENV2 replicon cells, 48 hours

Compound | EC50 (RSV strain A2; [1]) | EC50 (RSV A2; [2]) | EC50 (HRV16; [3]) | EC50 (DENV2 replicon; [4]) | EC50 (RSV strain A2) | EC50 (RSV A2) | EC50 (HRV16; [5]) | EC50 (DENV2 replicon; [6])
COC(=O)[C@H](C)N[P@@](=O)(OC[C@@]1(C#N)O[C@@H](c2ccc3c(N)ncnn23)[C@H](OC(C)=O)[C@@H]1OC(C)=O)Oc1ccccc1 (single isomer, unassigned) [Example 130] | 198 nM | 59 nM | 1780 nM | 21000 nM | – | – | – | –
COC(=O)[C@H](C)N[P@](=O)(OC[C@@]1(C#N)O[C@@H](c2ccc3c(N)ncnn23)[C@H](OC(C)=O)[C@@H]1OC(C)=O)Oc1ccccc1 (single isomer, unassigned) [Example 131] | 103 nM | 47 nM | 782 nM | 19200 nM | – | – | – | –
COC(=O)[C@H](C)N[P@@](=O)(OC[C@@]1(C#N)O[C@@H](c2ccc3c(N)ncnn23)[C@H](OC(=O)C(C)C)[C@@H]1OC(=O)C(C)C)Oc1ccccc1 (single isomer, unassigned) [Example 139] | 39 nM | 8 nM | 97 nM | 5240 nM | – | – | – | –
CCC(=O)O[C@H]1[C@H](c2ccc3c(N)ncnn23)O[C@](C#N)(CO[P@](=O)(N[C@@H](C)C(=O)OC)Oc2ccccc2)[C@H]1OC(=O)CC (single isomer, unassigned) [Example 142] | 93 nM | 16 nM | 352 nM | 11100 nM | – | – | – | –
CC(=O)O[C@H]1[C@H](c2ccc3c(N)ncnn23)O[C@](C#N)(COP(=O)(N[C@@H](C)C(=O)OC2CCOCC2)Oc2ccccc2)[C@H]1OC(C)=O (single isomer, unassigned) [Example 165] | – | – | – | – | 405 nM | 165 nM | 1910 nM | > 99700 nM
C[C@H](NP(=O)(OC[C@@]1(C#N)O[C@@H](c2ccc3c(N)ncnn23)[C@H](OC(=O)C(C)(C)C)[C@@H]1OC(=O)C(C)(C)C)Oc1ccccc1)C(=O)OC1CCOCC1 (single isomer, unassigned) [Example 173] | – | – | – | – | 256 nM | 75 nM | 519 nM | 16100 nM
CCC(=O)O[C@H]1[C@H](c2ccc3c(N)ncnn23)O[C@](C#N)(COP(=O)(N[C@@H](C)C(=O)OC2COC2)Oc2ccccc2)[C@H]1OC(=O)CC (single isomer, unassigned) [Example 175] | – | – | – | – | 87 nM | 17 nM | 85 nM | 9510 nM
CCC(=O)O[C@H]1[C@H](c2ccc3c(N)ncnn23)O[C@](C#N)(COP(=O)(N[C@@H](C)C(=O)OC2COC2)Oc2ccccc2)[C@H]1OC(=O)CC (single isomer, unassigned) [Example 176] | – | – | – | – | 182 nM | 16 nM | 142 nM | 9440 nM
CC(C)OC(=O)C(C)NP(=O)(OCC1(C#N)OC(c2ccc3c(N)ncnn23)C(OC(=O)C(C)C)C1OC(=O)C(C)C)Oc1ccc(C(=O)N(C)C)cc1 (single isomer, unassigned) [Example 178] | – | – | – | – | 633 nM | 163 nM | 1070 nM | 53200 nM
CC(C)OC(=O)C(C)NP(=O)(OCC1(C#N)OC(c2ccc3c(N)ncnn23)C(OC(=O)C(C)C)C1OC(=O)C(C)C)Oc1ccc(C(=O)N(C)C)cc1 (single isomer, unassigned) [Example 179] | – | – | – | – | 161 nM | 100 nM | 731 nM | 29400 nM
CC(C)C(=O)O[C@H]1[C@H](c2ccc3c(N)ncnn23)O[C@](C#N)(COP(=O)(N[C@@H](C)C(=O)OCC2CCOCC2)Oc2ccccc2)[C@H]1OC(=O)C(C)C (single isomer, unassigned) [Example 182] | – | – | – | – | 88 nM | 17 nM | 177 nM | 3500 nM
CCCOC(=O)[C@H](C)NP(=O)(OC[C@@]1(C#N)O[C@@H](c2ccc3c(N)ncnn23)[C@H](OC(=O)CC)[C@@H]1OC(=O)CC)Oc1ccccc1 (single isomer, unassigned) [Example 188] | – | – | – | – | 31 nM | 28 nM | 102 nM | 6920 nM
